Laboratory results: patent publication US10017480B2, “Compounds having a selective PDE4D inhibiting activity” (UNIVERSITÂ DEGLI STUDI DI GENOVA, priority 2014, dated 2018)
Marks after values point to notes of the source that are not given here. Each block holds one compound with its values, some of them ahead of it.

What was measured:
[1] = target: T1, PDE4C2 (Homo sapiens, UniProt Q08493); experiment: PDE4C2 enzyme inhibition (IMAP); type: biochemical
T1 construct: purchased Scottish Biomedical (Glasgow, Scotland, UK); host or cells: baculoviral system
Protocol: (§1) Compound's evaluation on PDE4D3, PDE4A4, PDE4B2 and PDE4C2 enzyme assays were performed by Scottish Biomedical (Glasgow, Scotland, UK) using recombinant human PDE enzymes expressed in a baculoviral system. The preliminary screening assays were performed by the IMAP technology (Molecular Devices), which is based on the high affinity binding of phosphate by immobilized metal coordination complexes on nanoparticles. The binding reagent complexes with phosphate groups on nucleotide monophosphate generated from cyclic nucleotides (cAMP) through phosphodiesterases. With fluorescence polarization detection, binding causes a change in the rate of the molecular motion of the phosphate bearing molecule and results in an increase in the fluorescence polarization value observed for the fluorescent label attached to the substrate. […] All compounds were solved in DMSO at 10^−2 M concentration and then diluted with water to the final suitable concentrations. All synthesized compounds were tested preliminary on PDE4D3 at 10^−5 M concentration, in duplicate. Results are expressed as a percent inhibition of control activity (see table 1).
(§2) The IC50 values obtained for the reference compounds are within accepted limits of historic averages obtained (0.5 log unit). IC50 values are reported at μM concentration in table 1. […] The results are reported (as percent of inhibition at 10 μM concentration) in Table 1.

[2] = target: PDE4A4 (Homo sapiens, UniProt P27815); experiment: PDE4A4 enzyme inhibition (IMAP); type: biochemical
Protocol: as §1, §2

[3] = target: T2, PDE4B2 (Homo sapiens, UniProt Q07343); experiment: PDE4B2 enzyme inhibition (IMAP); type: biochemical
T2 construct: purchased Scottish Biomedical (Glasgow, Scotland, UK); host or cells: baculoviral system
Protocol: as §1, §2

[4] = target: PDE4D3 (Homo sapiens, UniProt Q08499); experiment: PDE4D3 enzyme inhibition (IMAP); type: biochemical; details: for PDE4D3 % inib at 10 μM: in duplicate; for IC50: five concentrations 10^−8-10^−4 M
Protocol: as §1
IC50 values are reported at μM concentration in table 1. […] The results are reported (as percent of inhibition at 10 μM concentration) in Table 1.

[5] = target: PDE4D2 (Homo sapiens, UniProt Q08499); experiment: PDE4D2 enzyme inhibition (IMAP); type: biochemical
[6] = target: PDE4D1 (Homo sapiens, UniProt Q08499); experiment: PDE4D1 enzyme inhibition (IMAP); type: biochemical
[7] = tested on: spatial working memory; experiment: Y-maze continuous alternation task; type: in vivo; details: y-maze 6 min, vehicle 60.36
Protocol: Working memory function is given by the percentage of alternations made while exploring the y-maze for 6 min. No animals were excluded from the statistical analysis.
One-sample t-tests were performed to compare every condition to 50% alternations, i.e. chance level. […] FIG. 7 gives a graphical overview of the Y-maze alternation performance.

[8] = Cytotoxicity, lactate-dehydrogenase release; type: cell-based; details: human, HTLA human neuronal cells
Protocol: To evaluate the preliminary toxic profile of the molecule XVIIIa, we performed cytotoxicity and genotoxicity assays on human neuronal cells (HTLA). For the cytotoxic potential, we analyzed the lactate-dehydrogenase release in cells exposed for 24 hours to high concentrations (100 μM) of XVIIIa or GEBR-7b (lead compound—Bruno et al, Br. J. Pharm., 2011, 164:2054).

[9] = tested on: spatial object memory performance; experiment: OLT dose-response experiment; type: in vivo; details: for d2 (discrimination performance): 24 h interval, mean (SEM)
[10] = tested on: HTLA cells; experiment: Genotoxicity, Western blot of γ-H2AX; type: cell-based, human; details: 100 μM
Excerpt: To evaluate the genotoxic potential of XVIIIa and GEBR-7b, we analyzed the phosphorylation of the chromatin-bound histone H2AX (γ-H2AX), which is a quantitative marker for the DNA damage response at the site of double-strand breaks.
The H2AX signal represents the internal loading control.

[11] = tested on: forskolin (FSK)-induced cAMP in neuronal cultured cells; experiment: In vitro cAMP-enhancing potential (EIA); details: 100 μM, without FSK
[12] = tested on: α2-adrenoceptor-mediated anesthesia; experiment: Ketamine/xylazine induced α2-adrenoceptor-mediated anesthesia test (emesis surrogate); type: in vivo, mice; details: for Time anesthetized: relative to vehicle (set at 100%)
Protocol: A shorter anesthesia time than that of the vehicle condition would implicate emetic-like effects. Anesthesia time was calculated relatively to the vehicle condition, which itself was set at 100%, to control for repeated exposure to the test.

[13] = Pharmacokinetic analysis, plasma and brain; details: male BALB/c mice, 10 mg/kg subcutaneously

PDE4D1, sequence (Q08499 1-584 isoform Q08499-4): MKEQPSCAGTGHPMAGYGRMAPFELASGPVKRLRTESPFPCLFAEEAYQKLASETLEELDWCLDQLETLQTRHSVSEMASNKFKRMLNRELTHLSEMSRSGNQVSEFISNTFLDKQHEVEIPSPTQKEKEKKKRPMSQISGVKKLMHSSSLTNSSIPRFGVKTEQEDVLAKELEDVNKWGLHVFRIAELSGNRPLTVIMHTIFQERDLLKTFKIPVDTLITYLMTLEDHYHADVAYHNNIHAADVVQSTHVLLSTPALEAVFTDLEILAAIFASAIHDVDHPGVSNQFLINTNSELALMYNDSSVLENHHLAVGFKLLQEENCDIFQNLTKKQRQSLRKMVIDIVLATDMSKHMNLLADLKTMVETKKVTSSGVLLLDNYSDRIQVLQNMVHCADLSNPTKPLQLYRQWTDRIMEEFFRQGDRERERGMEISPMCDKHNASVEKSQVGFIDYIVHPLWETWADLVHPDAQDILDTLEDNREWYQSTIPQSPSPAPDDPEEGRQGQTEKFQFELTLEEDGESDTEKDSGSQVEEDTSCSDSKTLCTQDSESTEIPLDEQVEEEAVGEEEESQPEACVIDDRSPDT
T2 sequence (Q07343 1-564 isoform Q07343-2): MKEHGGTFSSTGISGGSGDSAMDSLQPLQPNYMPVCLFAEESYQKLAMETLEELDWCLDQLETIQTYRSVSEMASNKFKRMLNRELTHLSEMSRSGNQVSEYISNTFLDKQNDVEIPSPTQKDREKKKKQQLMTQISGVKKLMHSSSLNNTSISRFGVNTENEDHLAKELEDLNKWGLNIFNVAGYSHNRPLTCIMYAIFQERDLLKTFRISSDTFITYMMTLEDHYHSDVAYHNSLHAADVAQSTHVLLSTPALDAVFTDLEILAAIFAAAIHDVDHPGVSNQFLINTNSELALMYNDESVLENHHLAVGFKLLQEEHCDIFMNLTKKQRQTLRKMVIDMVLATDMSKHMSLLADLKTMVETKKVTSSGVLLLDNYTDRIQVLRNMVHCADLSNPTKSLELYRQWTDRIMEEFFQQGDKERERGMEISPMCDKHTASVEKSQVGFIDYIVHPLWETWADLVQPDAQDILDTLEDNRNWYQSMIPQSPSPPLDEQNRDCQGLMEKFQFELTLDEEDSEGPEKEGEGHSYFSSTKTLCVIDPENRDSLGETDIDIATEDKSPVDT
T1 sequence (Q08493 107-712): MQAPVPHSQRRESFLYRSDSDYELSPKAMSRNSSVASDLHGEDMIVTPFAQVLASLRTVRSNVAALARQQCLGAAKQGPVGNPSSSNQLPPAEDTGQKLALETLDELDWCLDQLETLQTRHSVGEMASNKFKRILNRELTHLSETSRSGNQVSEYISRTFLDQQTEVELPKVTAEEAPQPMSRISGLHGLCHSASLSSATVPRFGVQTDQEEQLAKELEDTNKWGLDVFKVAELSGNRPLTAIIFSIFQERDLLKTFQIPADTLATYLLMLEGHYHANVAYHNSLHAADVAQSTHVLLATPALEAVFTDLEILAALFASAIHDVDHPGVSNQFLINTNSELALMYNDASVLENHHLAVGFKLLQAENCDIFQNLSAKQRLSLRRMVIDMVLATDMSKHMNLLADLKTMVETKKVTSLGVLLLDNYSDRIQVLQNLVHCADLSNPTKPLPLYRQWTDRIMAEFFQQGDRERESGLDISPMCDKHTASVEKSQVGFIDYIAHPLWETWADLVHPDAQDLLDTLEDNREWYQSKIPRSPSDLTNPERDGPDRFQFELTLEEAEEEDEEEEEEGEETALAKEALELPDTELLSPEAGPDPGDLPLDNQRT
PDE4D2, sequence (Q08499 303-809 limits assumed): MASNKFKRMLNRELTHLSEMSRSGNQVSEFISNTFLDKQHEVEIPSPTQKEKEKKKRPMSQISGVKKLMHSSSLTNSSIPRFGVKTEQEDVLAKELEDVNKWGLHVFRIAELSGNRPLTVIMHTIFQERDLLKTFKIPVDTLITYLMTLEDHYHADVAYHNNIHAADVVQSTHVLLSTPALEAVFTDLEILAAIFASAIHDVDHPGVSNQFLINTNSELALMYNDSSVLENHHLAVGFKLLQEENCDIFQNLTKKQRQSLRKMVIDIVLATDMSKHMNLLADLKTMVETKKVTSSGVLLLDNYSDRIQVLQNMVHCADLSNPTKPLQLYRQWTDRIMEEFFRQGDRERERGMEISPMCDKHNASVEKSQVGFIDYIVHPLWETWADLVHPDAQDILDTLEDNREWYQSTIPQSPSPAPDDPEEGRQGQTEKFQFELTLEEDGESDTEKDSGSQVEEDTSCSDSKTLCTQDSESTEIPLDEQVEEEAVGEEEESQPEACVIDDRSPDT
PDE4A4, sequence (P27815 whole entry): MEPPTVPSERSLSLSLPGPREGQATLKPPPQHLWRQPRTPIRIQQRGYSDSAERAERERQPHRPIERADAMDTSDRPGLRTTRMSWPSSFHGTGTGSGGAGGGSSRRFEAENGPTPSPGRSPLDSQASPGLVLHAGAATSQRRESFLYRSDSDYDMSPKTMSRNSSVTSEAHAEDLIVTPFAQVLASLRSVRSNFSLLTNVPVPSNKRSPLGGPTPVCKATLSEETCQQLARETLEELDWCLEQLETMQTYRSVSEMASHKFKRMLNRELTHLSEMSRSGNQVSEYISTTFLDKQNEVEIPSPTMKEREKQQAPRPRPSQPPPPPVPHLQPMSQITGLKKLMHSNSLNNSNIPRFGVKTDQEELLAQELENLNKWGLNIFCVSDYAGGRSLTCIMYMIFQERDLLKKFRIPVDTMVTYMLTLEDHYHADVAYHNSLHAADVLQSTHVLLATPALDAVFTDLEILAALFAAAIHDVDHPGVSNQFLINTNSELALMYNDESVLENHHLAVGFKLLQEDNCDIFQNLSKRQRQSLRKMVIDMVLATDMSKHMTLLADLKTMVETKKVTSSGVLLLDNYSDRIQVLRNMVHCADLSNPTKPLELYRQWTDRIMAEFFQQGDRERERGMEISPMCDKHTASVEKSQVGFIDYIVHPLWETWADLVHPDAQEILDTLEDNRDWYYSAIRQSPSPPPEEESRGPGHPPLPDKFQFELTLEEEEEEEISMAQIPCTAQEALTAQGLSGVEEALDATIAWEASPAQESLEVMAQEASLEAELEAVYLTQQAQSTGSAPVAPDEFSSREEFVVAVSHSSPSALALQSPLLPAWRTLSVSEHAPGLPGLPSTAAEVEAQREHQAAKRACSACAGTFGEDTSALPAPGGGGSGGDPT
PDE4D3, sequence (Q08499 1-673 isoform Q08499-2): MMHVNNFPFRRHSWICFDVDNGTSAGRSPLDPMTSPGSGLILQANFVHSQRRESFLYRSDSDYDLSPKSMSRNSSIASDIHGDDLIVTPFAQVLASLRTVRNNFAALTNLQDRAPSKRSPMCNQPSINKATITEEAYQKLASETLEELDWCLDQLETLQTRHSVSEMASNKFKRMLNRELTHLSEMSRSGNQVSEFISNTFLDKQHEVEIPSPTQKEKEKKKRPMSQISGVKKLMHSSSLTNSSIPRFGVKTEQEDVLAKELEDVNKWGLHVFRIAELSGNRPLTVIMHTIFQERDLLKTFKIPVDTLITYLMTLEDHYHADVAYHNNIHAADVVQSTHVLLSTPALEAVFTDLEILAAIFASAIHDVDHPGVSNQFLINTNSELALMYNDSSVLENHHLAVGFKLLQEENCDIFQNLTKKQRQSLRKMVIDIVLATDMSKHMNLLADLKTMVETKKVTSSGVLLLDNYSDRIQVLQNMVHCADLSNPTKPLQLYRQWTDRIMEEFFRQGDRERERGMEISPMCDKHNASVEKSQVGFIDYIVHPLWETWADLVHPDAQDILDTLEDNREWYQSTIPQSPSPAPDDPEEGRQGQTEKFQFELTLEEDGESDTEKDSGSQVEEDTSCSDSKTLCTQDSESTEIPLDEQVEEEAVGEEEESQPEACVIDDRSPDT

PDE4C2 % inib at 10 μM [1]: 23%
melting point: 104 to 105 °C
PDE4A4 % inib at 10 μM [2]: 45%
PDE4B2 % inib at 10 μM [3]: 27%
PDE4D3 % inib at 10 μM [4]: 51%
IC50 [4]: 5.58 µM
SMILES: COc1ccc(C2=NOC(CC(=O)N3CC(C)OC(C)C3)C2)cc1OC1CCCC1 (stereo not shown) [XIVb, 4-({3-[3-(Cyclopentiloxy)-4-methoxyphenyl]-4,5-dihydroisoxazol-5-yl}acetil) 2,6-dimethylmorpholine]

PDE4C2 % inib at 10 μM [1]: 47%
PDE4A4 % inib at 10 μM [2]: 66%
PDE4B2 % inib at 10 μM [3]: 59%
PDE4D3 % inib at 10 μM [4]: 57%
IC50 [4]: 1.22 µM
SMILES: COc1ccc(C2=NOC(CC(=O)N3CCCC3)C2)cc1OC1CCCC1 (stereo not shown) [XIVd, 3-[3-(Cyclopentyloxy)-4-methoxyphenyl]-5-(2-oxo-2-pyrrolidin-1-ylethyl)-4,5-dihydroisoxazole]

SMILES: COc1ccc(C2=NOC(CC(=O)N(CCO)CCO)C2)cc1OC1CCCC1 (stereo not shown) [XIVg, 2-{3-[3-(Cyclopentyloxy)-4-methoxyphenyl]-4,5-dihydroisoxazol-5-yl}-N,N-bis(2-hydroxyethyl)acetamide]
PDE4C2 % inib at 10 μM [1]: 40%
melting point: 136 to 138 °C
PDE4A4 % inib at 10 μM [2]: 69%
PDE4B2 % inib at 10 μM [3]: 68%
PDE4D3 % inib at 10 μM [4]: 65%
IC50 [4]: 1.11 µM

PDE4D2 % inib at 10 μM [5]: 75%
PDE4C2 % inib at 10 μM [1]: 45%
IC50 [2]: 0.12 µM
PDE4A4 % inib at 10 μM [2]: 52%
IC50 [3]: 0.46 µM
PDE4B2 % inib at 10 μM [3]: 53.0%
PDE4D3 % inib at 10 μM [4]: 78%
IC50 [4]: 6 µM
PDE4D1 % inib at 10 μM [6]: 77%
SMILES: COc1ccc(-c2ccn(CC(O)CN3CC(C)OC(C)C3)n2)cc1OC1CCCC1 (stereo not shown) [XVIIIb, 1-{3-[3-(Cyclopentyloxy)-4-methoxyphenyl]-1H-pyrazol-1-yl}-3-(2,6-dimethylmorpholin-4-yl)propan-2-ol dihydrocloride]

PDE4D2 % inib at 10 μM [5]: 3%
PDE4C2 % inib at 10 μM [1]: 7%
melting point: 92 to 94 °C
PDE4A4 % inib at 10 μM [2]: 0%
PDE4B2 % inib at 10 μM [3]: 5%
PDE4D3 % inib at 10 μM [4]: 15%
PDE4D1 % inib at 10 μM [6]: 2%
SMILES: COc1ccc(-c2cc(C(O)CN3CC(C)OC(C)C3)on2)cc1OC1CCCC1 (stereo not shown) [XVIb, 1-{3-[3-(Cyclopentyloxy)-4-methoxyphenyl]isoxazol-5-yl}-2-(2,6-dimethylmorpholin-4-yl)ethanol]

SMILES: OC(CN1CCOCC1)Cn1ccc(-c2ccc(OC(F)F)c(OC3CCCC3)c2)n1 (stereo not shown) [XXIIa, 1-{3-[3-(cyclopentyloxy)-4-(difluoromethoxy)phenyl]-1H-pyrazol-1-yl}-3-morpholin-4-ylpropan-2-ol]
Alternations % ([7]; 0.001 mg/kg): 60.86 ^### %
Alternations % ([7]; 0.003 mg/kg): 63.54 ^### %
Alternations % ([7]; 0.01 mg/kg): 61.88 ^### %
cytotoxicity at 24 h, 100 µM [8]: 0.1 ± 0.36%
d2 (discrimination performance) ([9]; 0.0003 mg/kg): 0.02 (0.05)
d2 (discrimination performance) ([9]; 0.001 mg/kg): 0.06 (0.05)
memory function (OLT) ([9]; 0.003 mg/kg): fully enhance memory function
d2 (discrimination performance) ([9]; 0.003 mg/kg, p < 0.001 vs zero): 0.34 (0.05) ^###
d2 (discrimination performance) ([9]; 0.01 mg/kg): 0.05 (0.03)
memory improvement (OLT) ([9]; 0.0003, 0.001 and 0.01 mg/kg): did not show any memory improvement at all
DNA damage (γ-H2AX) [10]: not observed
PDE4A4 % inib at 10 μM [2]: 11%
basal cAMP levels [11]: without affecting the basal cAMP levels
Time anesthetized ([12]; 0.003 mg/kg): 112.28%
Time anesthetized ([12]; 0.03 mg/kg): 109.52%
Time anesthetized ([12]; 0.3 mg/kg): 107.45%
emetic-like effects ([12]; 0.003-3.0 mg/kg, one-way ANOVA n.s.): does not have emetic-like effects
Time anesthetized ([12]; 3.0 mg/kg): 91.22%
PDE4B2 % inib at 10 μM [3]: 26%
AUC0-t ([13]; brain): 2330 ng·h/g
t1/2 ([13]; brain): 57 min
AUC0-t ([13]; plasma): 861 ng·h/mL
Cmax ([13]; plasma): 993 ng/mL
Tmax ([13]; plasma): 19.8 min

PDE4C2 % inib at 10 μM [1]: 42%
PDE4A4 % inib at 10 μM [2]: 28%
PDE4B2 % inib at 10 μM [3]: 28%
PDE4D3 % inib at 10 μM [4]: 53%
IC50 [4]: 1.8 µM
SMILES: COc1ccc(-c2ccn(CCC(=O)N3CC(C)OC(C)C3)n2)cc1OC1CCCC1 (stereo not shown) [XXIb, 4-(3-{3-[3-(cyclopentyloxy)-4-methoxyphenyl]-1H-pyrazol-1-yl}propanoyl)2,6-dimethylmorpholine]

PDE4D2 % inib at 10 μM [5]: 23%
melting point: 131 to 132 °C
PDE4D3 % inib at 10 μM [4]: 27%
PDE4D1 % inib at 10 μM [6]: 42%
SMILES: COc1ccc(-c2ccn(CC(=O)N3CCOCC3)n2)cc1OC1CCCC1 [XXa, 4-({3-[3-(Cyclopentyloxy)-4-methoxyphenyl]-1H-pyrazol-1-yl}acetyl)morpholine]

PDE4D2 % inib at 10 μM [5]: 13%
melting point: 99 to 100 °C
PDE4D3 % inib at 10 μM [4]: 23%
PDE4D1 % inib at 10 μM [6]: 18%
SMILES: COc1ccc(-c2ccn(CC(=O)N3CC(C)OC(C)C3)n2)cc1OC1CCCC1 (stereo not shown) [XXb, 4-({3-[3-(Cyclopentyloxy)-4-methoxyphenyl]-1H-pyrazol-1-yl}acetyl)2,6-dimethylmorpholine]
